Laboratory results reported in ChEMBL document CHEMBL1201862, “PubChem BioAssay data set” (2004).
Calls of active or inactive are those of the source.

Assays:
[1] = tested on: Vero; experiment: mammalian cell viability reduction – secondary assay, cytotoxicity control for West Nile virus antiviral project, dose response (AID 1650); type: functional; conditions: Chlorocebus sabaeus
[2] = THP-1 cell cytotoxicity, dose response, cytotoxicity control for non-replicating M. tuberculosis project (AID 489025); type: functional
[3] = Luminescence Cell-Based Dose Retest to Confirm Inhibitors of Cancer Stem Cells. [Related pubchem assays (depositor defined):AID2717, AID2721]; type: functional; conditions: Homo sapiens
[4] = HepG2 cell cytotoxicity, dose response, cytotoxicity control for non-replicating M. tuberculosis project (AID 489018); type: functional; conditions: Mycobacterium tuberculosis
[5] = molecular target: CAAX prenyl protease 2 (Saccharomyces cerevisiae S288c, UniProt Q03530); type: biochemical
Chain of CAAX prenyl protease 2 (Q03530 whole entry): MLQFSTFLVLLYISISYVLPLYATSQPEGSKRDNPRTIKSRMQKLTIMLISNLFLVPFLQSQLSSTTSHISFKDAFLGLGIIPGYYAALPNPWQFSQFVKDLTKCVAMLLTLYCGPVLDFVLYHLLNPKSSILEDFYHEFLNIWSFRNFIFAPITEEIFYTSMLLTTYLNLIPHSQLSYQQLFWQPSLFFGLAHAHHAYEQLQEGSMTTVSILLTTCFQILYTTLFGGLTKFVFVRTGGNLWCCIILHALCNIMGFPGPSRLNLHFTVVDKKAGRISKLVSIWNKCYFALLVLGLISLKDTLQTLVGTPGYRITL

[6] = molecular target: CAAX prenyl protease 1 (Saccharomyces cerevisiae S288c, UniProt P47154); experiment: yeast CAAX protease Ste24 inhibition – biochemical, S. cerevisiae, plate reader, cherry-pick, dose response (AID 488815)
Chain of CAAX prenyl protease 1 (P47154 whole entry): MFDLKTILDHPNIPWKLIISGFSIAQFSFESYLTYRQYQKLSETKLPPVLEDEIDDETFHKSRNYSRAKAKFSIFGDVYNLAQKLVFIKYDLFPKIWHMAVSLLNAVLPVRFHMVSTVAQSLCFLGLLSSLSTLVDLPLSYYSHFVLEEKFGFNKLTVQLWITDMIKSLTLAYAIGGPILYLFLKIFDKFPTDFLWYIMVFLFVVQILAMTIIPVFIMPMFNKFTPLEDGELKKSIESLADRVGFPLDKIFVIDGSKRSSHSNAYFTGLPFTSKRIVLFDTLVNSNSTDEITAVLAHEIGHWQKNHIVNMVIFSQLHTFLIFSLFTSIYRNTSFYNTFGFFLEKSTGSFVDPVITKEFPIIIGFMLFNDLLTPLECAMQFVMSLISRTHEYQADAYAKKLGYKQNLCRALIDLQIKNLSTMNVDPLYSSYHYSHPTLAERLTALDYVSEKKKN

[7] = tested on: Vero; experiment: cells; type: functional, cell-based; conditions: Chlorocebus sabaeus
[8] = tested on: Vero; experiment: cells; type: functional; conditions: Chlorocebus sabaeus

CCN(CC)CCNC(=O)c1[nH]c2ccc(OCc3ccccc3)cc2c1C
active: CC50 [1] 29.4 µM | CC50 [2] 25.6 µM | AC50 [3] 1.18 µM | CC50 [4] 17 µM | AC50 [5] 14.1 µM | AC50 [6] 4.58 µM | IC50 [7] > 25 µM | CC50 [8] > 25 µM
